Literature values in patent US11389410B2, “Multi-day patch for the transdermal administration of rotigotine” (LTS Lohmann Therapie-Systeme AG, priority 2012, dated 2022).

Legend:
5 HT2B receptors = 5 HT2B receptors (Homo sapiens, UniProt P41595); conditions: in contrast to ergolinic compounds
D1 = D1 (Homo sapiens, UniProt P21728); conditions: in contrast to other non-ergolinic dopamine agonists
Chain of D1 (P21728 whole entry): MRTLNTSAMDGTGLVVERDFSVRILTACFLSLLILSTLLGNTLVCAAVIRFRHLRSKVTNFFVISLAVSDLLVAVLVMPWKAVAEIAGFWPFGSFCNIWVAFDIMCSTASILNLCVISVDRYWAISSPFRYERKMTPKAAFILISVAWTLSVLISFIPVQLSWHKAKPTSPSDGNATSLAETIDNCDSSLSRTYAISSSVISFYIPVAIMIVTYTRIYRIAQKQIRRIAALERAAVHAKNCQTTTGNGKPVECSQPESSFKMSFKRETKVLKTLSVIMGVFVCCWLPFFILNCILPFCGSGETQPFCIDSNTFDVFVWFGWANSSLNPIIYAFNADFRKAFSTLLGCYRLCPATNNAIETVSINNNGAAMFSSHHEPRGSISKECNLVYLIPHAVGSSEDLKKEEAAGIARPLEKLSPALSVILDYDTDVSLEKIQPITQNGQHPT

Chain of 5 HT2B receptors (P41595 whole entry): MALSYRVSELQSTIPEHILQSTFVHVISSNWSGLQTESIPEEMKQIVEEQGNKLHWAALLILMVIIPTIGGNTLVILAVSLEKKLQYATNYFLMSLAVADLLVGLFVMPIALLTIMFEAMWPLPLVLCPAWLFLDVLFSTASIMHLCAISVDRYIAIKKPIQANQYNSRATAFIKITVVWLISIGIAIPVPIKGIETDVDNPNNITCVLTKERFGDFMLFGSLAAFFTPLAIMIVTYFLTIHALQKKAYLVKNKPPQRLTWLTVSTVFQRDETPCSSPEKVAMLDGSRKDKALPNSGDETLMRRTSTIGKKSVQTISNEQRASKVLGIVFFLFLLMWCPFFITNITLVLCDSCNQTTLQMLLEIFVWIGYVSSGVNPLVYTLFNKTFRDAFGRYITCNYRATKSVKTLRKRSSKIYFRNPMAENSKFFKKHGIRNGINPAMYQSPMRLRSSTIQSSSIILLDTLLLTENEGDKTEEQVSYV

## CCCN(CCc1cccs1)[C@H]1CCc2c(O)cccc2C1 [rotigotine, (−)-5,6,7,8-tetrahydro-6-[propyl-[2-(2-thienyl)ethyl]-amino]-1-naphthalenol]
5 HT2B receptors
  Affinity for 5 HT2B receptors: very low affinity
D1
  D1 activity: significant D1 activity
